Test results reported in US4137420A, “Cysteine derivatives” (Santen Pharmaceutical Co., Ltd., priority 1976, dated 1979).

Legend:
[1] = In vitro determination of the reduction in viscosity of egg white; conditions: 20 minutes at 37° C, mean ± S.E. of 3 to 5 experiments
Experimental: Mucolytic activity is evaluated by determining the reduction in viscosity of egg white or mucin in vitro. L-Cysteine ethyl ester hydrochloride, L-cysteine methyl ester hydrochloride and acetyl-L-cysteine are used as test compounds for comparison. (1) In vitro determination of the reduction in viscosity of egg white Egg white, which is pooled in sufficient quantity to supply material for all the determinations, is gently blended in a mixer for 5 minutes. 9ml portions of this material are put into a 50-ml beaker and the test solution in a volume of 1ml containing various concentrations of test compound (test compound is dissolved in distilled water and the solution is adjusted to pH 8.0 with 1 N sodium hydroxide, while distilled water is used as a control) is added. The mixture is then shaken for 20 minutes at 37° C. Viscosity of the resulting solution is determined by an Ostwald viscosimeter. Results shown in Table 1 are percent reduction in relative viscosity at various concentrations of the test compound used.

mucin = experiment: In vitro determination of the reduction in viscosity of mucin; conditions: 10 mM; 1% mucin, pH 8.0, 1 hour at 37° C; mean ± S.E. of 3 to 5 experiments
Experimental: Mucolytic activity is evaluated by determining the reduction in viscosity of egg white or mucin in vitro. L-Cysteine ethyl ester hydrochloride, L-cysteine methyl ester hydrochloride and acetyl-L-cysteine are used as test compounds for comparison.
(2) In vitro determination of the reduction in viscosity of mucin
According to the method presented by Sheffner et al. (Ann, N.Y. Acad. Sci., Vol. 106, P 298-310, 1963), bacteriological mucin (Nakarai Chemical Co., Ltd.) is dissolved in Sorensen's phosphate buffer (pH =8.0) and a 1% mucin solution is prepared. 0.9ml portions of the solution are put into test tubes and test compounds (prepared in the same manner as in (1) previously described, except that the buffer solution is used for control) are added to them in a concentration 10mM. The mixture is then shaken for 1 hour at 37° C. The viscosity of the resulting solution is determined by Ostwald viscosimeter. Results shown in Table 1 are percent reduction in relative viscosity at 10mM of the test compounds used.

[2] = Changes in the mucolytic activity of the test compounds treated with rabbit serum (viscosity of egg white); conditions: for Reduction in the mucolytic activity (%): 1.0 mM, rabbit serum treated vs untreated; for Percent reduction in relative viscosity of egg white, treated with rabbit serum / Percent reduction in relative viscosity of egg white, untreated with rabbit serum: final concentration 1.0 mM, mean ± S.E. of 3 to 5 experiments; for Percent reduction in relative viscosity of egg white, treated with rabbit serum: after 30 minutes at 37° C with rabbit serum; for Percent reduction in relative viscosity of egg white, untreated with rabbit serum: without rabbit serum
Experimental: (3) Changes in the mucolytic activity of the test compounds treated with rabbit serum.
0.1ml of test compound (prepared in the same manner as (1) previously described) and 0.9ml of rabbit serum are put into a 50-ml beaker and the resulting mixture is shaken for 30 minutes at 37° C. 9ml of egg white is then added it and it is shaken for another 20 minutes. The viscosity of the resulting solution is determined by an Ostwald viscosimeter. Results shown in Table 2 are percent reduction in the relative viscosity of egg white at 1mM of the test compounds after treatment with or without rabbit serum.

in vivo = conditions: mouse, ip
Experimental: 5-week-old male mice of ddy strain (body weight 24-28g) are used. […] Test solution
Test compound is added to physiological saline and the resulting solution is neutralized with sodium hydroxide to form a 5% solution (pH 7.0).
After administration of test solution, general symptoms and deaths which are caused during seven days are observed. The LD50 values are calculated according to the method of Litchfield and Wilcoxon.

Compound: CC(C)(S)C(=O)N[C@@H](CS)C(=O)O [N-(2-mercaptoisobutyryl)-L-cysteine]
- Percent reduction in relative viscosity, egg white ([1]; final concentration 0.1 mM): 23.1 ± 1.4%
- Percent reduction in relative viscosity, egg white ([1]; final concentration 10.0 mM): 57.0 ± 1.0%
- Percent reduction in relative viscosity, mucin (mucin): 22.5 ± 1.5%
- Reduction in the mucolytic activity (%) [2]: 14.1%
- Percent reduction in relative viscosity of egg white, treated with rabbit serum [2]: 32.9 ± 1.0%
- Percent reduction in relative viscosity of egg white, untreated with rabbit serum [2]: 38.3 ± 2.2%

Compound: CCOC(=O)[C@@H](N)CS.Cl [L-cysteine ethyl ester hydrochloride, L-Cysteine ethyl ester hydrochloride, reference compound]
- Percent reduction in relative viscosity, egg white ([1]; final concentration 0.1 mM): 25.1 ± 3.5%
- Percent reduction in relative viscosity, egg white ([1]; final concentration 10.0 mM): 59.9 ± 1.2%
- Percent reduction in relative viscosity, mucin (mucin): 19.7 ± 1.5%
- Reduction in the mucolytic activity (%) [2]: 63.3%
- Percent reduction in relative viscosity of egg white, treated with rabbit serum [2]: 15.4 ± 1.8%
- Percent reduction in relative viscosity of egg white, untreated with rabbit serum [2]: 42.0 ± 1.1%

Compound: CC(S)C(=O)N[C@@H](CS)C(=O)O (single isomer, unassigned) [N-(2-mercaptopropionyl)-L-cysteine-A]
- Percent reduction in relative viscosity, egg white ([1]; final concentration 0.1 mM): 24.9 ± 1.5%
- Percent reduction in relative viscosity, egg white ([1]; final concentration 10.0 mM): 56.4 ± 1.6%
- Percent reduction in relative viscosity, mucin (mucin): 26.6 ± 1.5%
- Reduction in the mucolytic activity (%) [2]: 27.2%
- Percent reduction in relative viscosity of egg white, treated with rabbit serum [2]: 30.0 ± 1.0%
- Percent reduction in relative viscosity of egg white, untreated with rabbit serum [2]: 41.2 ± 2.1%
- LD50 at 168 h (in vivo): 2090 mg/kg

Compound: O=C(CS)N[C@@H](CS)C(=O)O [N-mercaptoacetyl-L-cysteine]
- Percent reduction in relative viscosity, egg white ([1]; final concentration 0.1 mM): 26.1 ± 4.1%
- Percent reduction in relative viscosity, egg white ([1]; final concentration 10.0 mM): 60.0 ± 4.4%
- Percent reduction in relative viscosity, mucin (mucin): 31.8 ± 1.5%
- Reduction in the mucolytic activity (%) [2]: 9.8%
- Percent reduction in relative viscosity of egg white, treated with rabbit serum [2]: 35.9 ± 0.3%
- Percent reduction in relative viscosity of egg white, untreated with rabbit serum [2]: 39.8 ± 3.0%

Compound: CC(=O)N[C@@H](CS)C(=O)O [N-acetyl-L-cysteine, acetyl-L-cysteine, reference compound]
- Percent reduction in relative viscosity, egg white ([1]; final concentration 0.1 mM): 11.0 ± 2.6%
- Percent reduction in relative viscosity, egg white ([1]; final concentration 10.0 mM): 49.0 ± 1.8%
- Percent reduction in relative viscosity, mucin (mucin): 4.8 ± 2.5%
- Reduction in the mucolytic activity (%) [2]: 37.3%
- Percent reduction in relative viscosity of egg white, treated with rabbit serum [2]: 18.5 ± 0.8%
- Percent reduction in relative viscosity of egg white, untreated with rabbit serum [2]: 29.5 ± 2.5%

Compound: CC(S)C(=O)N[C@@H](CS)C(=O)O (single isomer, unassigned) [N-(2-mercaptopropionyl)-L-cysteine-B]
- Percent reduction in relative viscosity, egg white ([1]; final concentration 0.1 mM): 24.9 ± 1.4%
- Percent reduction in relative viscosity, egg white ([1]; final concentration 10.0 mM): 57.7 ± 1.0%
- Percent reduction in relative viscosity, mucin (mucin): 20.1 ± 0.4%
- Reduction in the mucolytic activity (%) [2]: 18.8%
- Percent reduction in relative viscosity of egg white, treated with rabbit serum [2]: 31.1 ± 3.8%
- Percent reduction in relative viscosity of egg white, untreated with rabbit serum [2]: 38.1 ± 2.6%

Compound: O=C(CCS)N[C@@H](CS)C(=O)O [N-(3-mercaptopropionyl)-L-cysteine]
- Percent reduction in relative viscosity, egg white ([1]; final concentration 0.1 mM): 22.8 ± 0.1%
- Percent reduction in relative viscosity, egg white ([1]; final concentration 10.0 mM): 54.5 ± 4.7%
- Percent reduction in relative viscosity, mucin (mucin): 28.1 ± 0.5%
- Reduction in the mucolytic activity (%) [2]: -5.4%
- Percent reduction in relative viscosity of egg white, treated with rabbit serum [2]: 38.7 ± 2.6%
- Percent reduction in relative viscosity of egg white, untreated with rabbit serum [2]: 36.7 ± 1.6%

Compound: COC(=O)[C@@H](N)CS.Cl [L-cysteine methyl ester hydrochloride, reference compound]
- Percent reduction in relative viscosity, egg white ([1]; final concentration 0.1 mM): 31.1 ± 5.6%
- Percent reduction in relative viscosity, egg white ([1]; final concentration 10.0 mM): 60.6 ± 2.4%
- Percent reduction in relative viscosity, mucin (mucin): 17.8 ± 0.2%
- Reduction in the mucolytic activity (%) [2]: 84.6%
- Percent reduction in relative viscosity of egg white, treated with rabbit serum [2]: 7.0 ± 1.2%
- Percent reduction in relative viscosity of egg white, untreated with rabbit serum [2]: 45.5 ± 2.0%
